According to ChEMBL document CHEMBL3588847, “1,5-Diarylpyrazole and vanillin hybrids: Synthesis, biological activity and DFT studies” (Eur J Med Chem, 2015):
The source made the active and inactive calls. The calls are words filed in the database; no cut-off is given here.

What was measured:
[1] = Antioxidant activity assessed as DPPH radical scavenging activity; type: physicochemical
[2] = Antioxidant activity assessed as AAPH radical scavenging activity by measuring Trolox equivalents after 90 mins by fluorescein probe based ORAC assay; type: physicochemical; conditions: 1.5 h
[3] = tested on: Rattus norvegicus; experiment: Hypoglycemic effect in Wistar rat model of streptozotocin-induced type-2 diabetes mellitus assessed as reduction in blood glucose level at 50 mg/kg, ig after 7 hrs; type: functional; conditions: po
[4] = Antioxidant activity assessed as DPPH radical scavenging activity at 20 mg/ml; type: physicochemical
[5] = Antioxidant activity assessed as DPPH radical scavenging activity at 20 µg/ml; type: physicochemical
[6] = Antioxidant activity assessed as DPPH radical scavenging activity at […]; type: physicochemical
[7] = tested on: Rattus norvegicus; experiment: Hypoglycemic effect in Wistar rat model of streptozotocin-induced type-2 diabetes mellitus assessed as reduction in blood glucose level at 5 mg/kg, ig after 7 hrs; type: functional, organism-based

EC50 [1] [mM] | Activity [2] [g⁻¹] | Compound | other results
2.9 | 993 | COc1cc(/C=N/NC(=O)c2nn(-c3ccc(F)cc3F)c(-c3ccc(C(F)(F)F)cc3)c2C)ccc1O | 
4.59 |  | COc1cc(/C=N/NC(=O)c2nn(-c3ccnc4cc(Cl)ccc34)c(-c3ccc(Cl)cc3)c2C)ccc1O | 
3.55 | 634 | COc1cc(/C=N/NC(=O)c2nn(-c3ccc(Cl)cc3Cl)c(-c3ccc(Cl)cc3)c2C)ccc1O | inhibition in vivo at 50 mg/kg [3]: 64.9%
4.24 | 401 | COc1cc(/C=N/NC(=O)c2nn(-c3ccc(Cl)cc3Cl)c(-c3ccc(C(F)(F)F)cc3)c2C)ccc1O | inhibition in vivo at 50 mg/kg [3]: 35.3%
 |  | Cc1c(C(=O)O)nn(-c2ccc(Cl)cc2Cl)c1-c1ccc(Cl)cc1 | inhibition (INH) [4]: 17%
3.54 | 891 | COc1cc(/C=N/NC(=O)c2nn(-c3ccc(F)cc3F)c(-c3ccc(F)cc3)c2C)ccc1O | 
3.56 | 882 | COc1cc(/C=N/NC(=O)c2nn(-c3ccc(F)c(Cl)c3)c(-c3ccc(Cl)cc3)c2C)ccc1O | 
6.92 | 525 | COc1cc(/C=N/NC(=O)c2nn(-c3ccc(F)c(Cl)c3)c(-c3ccc(F)cc3)c2C)ccc1O | 
 |  | COc1cc(C=O)ccc1O [VANILLIN] | inhibition (INH) [5]: 7%; inhibition (INH) [6]: 75%
2.07 |  | O=C1O[C@H]([C@@H](O)CO)C(O)=C1O [ASCORBIC ACID] | 
2.91 |  | COc1cc(/C=N/NC(=O)c2nn(-c3ccc(C(F)(F)F)cc3)c(-c3ccc(Br)cc3)c2C)ccc1O | 
2.46 | 611 | COc1cc(/C=N/NC(=O)c2nn(-c3ccccc3)c(-c3ccccc3)c2C)ccc1O | 
2.6 | 432 | COc1cc(/C=N/NC(=O)c2nn(-c3ccc(Cl)c(Cl)c3)c(-c3ccc(Cl)cc3)c2C)ccc1O | inhibition in vivo at 50 mg/kg [3]: 33.3%
2.99 | 1076 | COc1cc(/C=N/NC(=O)c2nn(-c3ccc(Cl)cc3Cl)c(-c3ccccc3)c2C)ccc1O | inhibition in vivo at 50 mg/kg [3]: 26.6%
65.8 | 2979 | COc1cc(C(=O)O)ccc1O [VANILLIC ACID] | 
6.45 |  | COc1cc(/C=N/NC(=O)c2nn(-c3ccnc4cc(Cl)ccc34)c(-c3ccc(F)cc3)c2C)ccc1O | 
2.34 | 867 | COc1cc(/C=N/NC(=O)c2nn(-c3ccc(C(F)(F)F)cc3)c(-c3ccc(Cl)cc3)c2C)ccc1O | 
 |  | COc1ccc(Cl)cc1C(=O)NCCc1ccc(S(=O)(=O)NC(=O)NC2CCCCC2)cc1 | Activity [7]: Active
